# Results from patent US6133291A, “N-(imidazolylalkyl)substituted cyclic amines as histamine-H3 agonists or antagonists” (Schering Corporation, priority 1998, dated 2000).
# Where two headings read alike, the source gives them in different places.
# Columns and labels:
# H3 receptors [1] = biological target: T1, H3 receptors (Cavia porcellus, UniProt Q9JI35); assay: H3-Receptor Binding Assay (guinea pig brain membranes, [3H]R-α-methylhistamine or [3H]Nα-methylhistamine)
# H3 receptors [2] = biological target: T1, H3 receptors; assay: pA2 at H3 receptor (guinea pig neuronal ileum contraction assay); assay type: biochemical
# Source text: pA2=-logEC50, as defined by J. Hey, Eur. J. Pharmacol., (1995), Vol. 294, 329.
# mice = settings: electrically induced convulsions; cited from earlier work
# rat = settings: cited from earlier work
# histamine-H3 receptor = settings: cited from earlier work
# [3] = HCl salt, guinea pig brain membranes, pH 7.5, 30° C., 30 min
# [4] = HCl salt, pA2=-logEC50 as defined by J. Hey
# [5] = HCl salt, pA2=-logEC50 as defined by J. Hey, read-out: pA2 (converted)
# T1 sequence (Q9JI35 whole entry): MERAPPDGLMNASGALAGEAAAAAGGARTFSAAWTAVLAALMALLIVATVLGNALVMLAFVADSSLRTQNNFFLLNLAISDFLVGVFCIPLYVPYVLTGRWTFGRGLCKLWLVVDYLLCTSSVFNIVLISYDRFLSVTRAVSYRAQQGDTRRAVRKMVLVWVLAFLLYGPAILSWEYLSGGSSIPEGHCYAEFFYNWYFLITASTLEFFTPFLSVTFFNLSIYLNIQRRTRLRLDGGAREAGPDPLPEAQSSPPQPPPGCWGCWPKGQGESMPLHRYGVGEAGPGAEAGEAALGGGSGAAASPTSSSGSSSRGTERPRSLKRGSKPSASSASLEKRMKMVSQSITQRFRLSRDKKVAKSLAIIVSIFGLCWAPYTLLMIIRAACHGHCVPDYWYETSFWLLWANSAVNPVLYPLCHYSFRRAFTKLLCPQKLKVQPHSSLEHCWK
smiles,measurement,setting,value
OCCN1CCC(CCCC2CCN(CCCCc3c[nH]cn3)CC2)CC1 [compound 30],Ki,H3 receptors [1]; [3],7 nM
same,pA2,H3 receptors [2]; [4],7.7
CCCN(CC1CCN(CCCCc2c[nH]cn2)CC1)S(=O)(=O)c1ccc(OC(F)(F)F)cc1 [compound 6],Ki,H3 receptors [1],24 nM
same,Kb,H3 receptors [2]; [5],316 nM
O=C(Nc1ccc(Cl)c(Cl)c1)C1CCN(CCCCc2c[nH]cn2)CC1 [No. 8],Ki,H3 receptors [1],27 nM
same,Kb,H3 receptors [2]; [5],158 nM
OC1(Cc2ccccc2)CCN(CCCc2c[nH]cn2)CC1 [compound 36],Ki,H3 receptors [1],660 nM
Fc1ccc(C2=CCN(CCCCc3c[nH]cn3)CC2)cc1 [compound 31],Ki,H3 receptors [1],14 nM
same,Kb,H3 receptors [2],12.6 nM
O=C(Nc1cccc(O)c1)C1CCN(CCCc2c[nH]cn2)CC1 [compound 16],Ki,H3 receptors [1],700 nM
O=C(Nc1cccc(Cl)c1)C1CCN(CCCCc2c[nH]cn2)CC1 [compound 9],Ki,H3 receptors [1],5.5 nM
same,Kb,H3 receptors [2]; [5],1.26 nM
CCCNC(=O)C1CCN(CCCCc2c[nH]cn2)CC1 [compound 3],Ki,H3 receptors [1],53 nM
OC1(c2ccc(Cl)cc2)CCN(CCCCc2c[nH]cn2)CC1 [compound 26],Ki,H3 receptors [1],6 nM
same,Kb,H3 receptors [2],10 nM
CCC(=O)C1(c2ccccc2)CCN(CCCc2c[nH]cn2)CC1 [compound 35],Ki,H3 receptors [1],500 nM
O=C(c1ccc(F)cc1)C1CCN(CCCc2c[nH]cn2)CC1 [compound 32],Ki,H3 receptors [1],6 nM
same,Kb,H3 receptors [2]; [5],20 nM
O=C(Nc1cccc(C(F)(F)F)c1)C1CCN(CCCCc2c[nH]cn2)CC1 [No. 10],Ki,H3 receptors [1],9 nM
same,Kb,H3 receptors [2]; [5],0.794 nM
FC(F)(F)Oc1ccc(CNC2CCN(CCCCc3c[nH]cn3)CC2)cc1 [compound 21],Ki,H3 receptors [1],13 nM
same,Kb,H3 receptors [2]; [5],7.94 nM
S=C(NC1CCCCC1)N1CCC(c2cnc[nH]2)CC1 [thioperamide],duration of each phase of convulsion,mice,decreased the duration of each phase of convulsion
same,electroconvulsive threshold,mice,raised the electroconvulsive threshold
same,reversal learning,rat,improve short-term memory and reversal learning
same,short-term memory,rat,improve short-term memory
O=C(c1ccc(F)cc1)C1CCN(CCCCc2c[nH]cn2)CC1 [compound 33],Ki,H3 receptors [1],3 nM
same,Kb,H3 receptors [2]; [5],6.31 nM
Fc1ccc(OCC2CCN(CCCCc3c[nH]cn3)CC2)cc1 [compound 34],Ki,H3 receptors [1],10 nM
same,Kb,H3 receptors [2]; [5],20 nM
FC(F)(F)Oc1ccc(NCC2CCN(CCCCc3c[nH]cn3)CC2)cc1 [compound 22],Ki,H3 receptors [1],9 nM
OC1(c2ccc(Cl)cc2)CCN(CCCCCc2c[nH]cn2)CC1 [compound 27],Ki,H3 receptors [1],5 nM
same,Kb,H3 receptors [2],7.94 nM
OC1(c2ccc(Cl)cc2)CCN(CCCc2c[nH]cn2)CC1 [compound 25],Ki,H3 receptors [1],6 nM
same,Kb,H3 receptors [2],12.6 nM
O=C(Nc1cccc(OC(F)(F)F)c1)C1CCN(CCCc2c[nH]cn2)CC1 [compound 11],Ki,H3 receptors [1],1 nM
same,Kb,H3 receptors [2]; [5],0.631 nM
N=C(N)SCCCc1c[nH]cn1 [S-[3-(4(5)-imidazolyl)propyl]isothiourea],H3 agonist/antagonist activity,histamine-H3 receptor,histamine-H3 antagonist
CCCN(CC1CCN(CCCCc2c[nH]cn2)CC1)S(=O)(=O)c1ccc(Cl)cc1 [compound 5],Ki,H3 receptors [1],44 nM
OC1(c2cccc(C(F)(F)F)c2)CCN(CCCCc2c[nH]cn2)CC1 [compound 28],Ki,H3 receptors [1],60 nM
O=C(NCc1ccc(Cl)cc1)C1CCN(CCCc2c[nH]cn2)CC1 [No. 12],Ki,H3 receptors [1],29 nM
same,Kb,H3 receptors [2]; [5],10 nM
CC1(C(=O)Nc2ccc(OC(F)(F)F)cc2)CCCN(CCCCc2c[nH]cn2)C1 (stereo not shown) [No. 20],Ki,H3 receptors [1],170 nM
O=C(Nc1ccc(OC(F)(F)F)cc1)C1CCN(CCCCc2c[nH]cn2)CC1 [No. 2],Ki,H3 receptors [1],2 nM
same,Kb,H3 receptors [2]; [5],0.501 nM
CCCCOc1ccc(NC(=O)C2CCN(CCCc3c[nH]cn3)CC2)cc1 [compound 14],Ki,H3 receptors [1],10 nM
same,Kb,H3 receptors [2]; [5],1 nM
CCCNCC1CCN(CCCCc2c[nH]cn2)CC1 [No. 4],Ki,H3 receptors [1],200 nM
O=C(Nc1ccc(Cl)cc1)C1CCN(CCCCc2c[nH]cn2)CC1 [No. 7],Ki,H3 receptors [1],35 nM
O=C(Nc1ccc(O)cc1)C1CCN(CCCc2c[nH]cn2)CC1 [compound 15],Ki,H3 receptors [1],100 nM
CCOC(=O)C1CCN(CCCCc2c[nH]cn2)CC1 [compound 1],Ki,H3 receptors [1],22 nM
c1nc(CCCCN2CCC(N3CCCCC3)CC2)c[nH]1 [compound 24],Ki,H3 receptors [1],100 nM
same,Kb,H3 receptors [2]; [5],631 nM
O=C(NCc1ccc(OC(F)(F)F)cc1)C1CCN(CCCc2c[nH]cn2)CC1 [compound 13],Ki,H3 receptors [1],24 nM
same,Kb,H3 receptors [2]; [5],31.6 nM
O=C(NC1CCN(CCCc2c[nH]cn2)CC1)c1ccc(F)cc1 [No. 18],Ki,H3 receptors [1],52 nM
CC1(C(=O)Nc2ccc(OC(F)(F)F)cc2)CCN(CCCCc2c[nH]cn2)CC1 [No. 19],Ki,H3 receptors [1],180 nM
same,Kb,H3 receptors [2]; [5],39.8 nM
O=C(NC1CCN(CCCc2c[nH]cn2)CC1)c1ccc(OC(F)(F)F)cc1 [No. 17],Ki,H3 receptors [1],23 nM
OCCN1CCC(CCCC2CCN(CCCc3c[nH]cn3)CC2)CC1 [compound 29],Ki,H3 receptors [1]; [3],12 nM
same,pA2,H3 receptors [2]; [4],7.1
